Test results: US20230382966A1, “NOVEL KLOTHO INTERACTION SITE IN THE C-TERMINUS OF FGF23” (INDIANA UNIVERSITY RESEARCH AND TECHNOLOGY CORPORATION, priority 2020, published 2023)
Entries after “also recorded” stand apart in the source; their conditions may differ. One block for each molecule: values may come before it. Bridges are numbered along the chain shown (N, C = ends). Roman numbers before positions name the chains, in order. Where no end group is shown, it is not given here.

Assays:
FGFR/KL-complex = molecular target: T1, FGFR/KL-complex (Homo sapiens, UniProt Q9UEF7); test: FGF23-antagonism measured by relative p-Erk levels in 293/KL cells; format: cell-based; conditions: for IC50: p-Erk
T1 construct: expressed in transfected cells; host or cells: 293T HEK cells overexpressing human KL (293/KL)
T1 sequence (Q9UEF7 34-1012): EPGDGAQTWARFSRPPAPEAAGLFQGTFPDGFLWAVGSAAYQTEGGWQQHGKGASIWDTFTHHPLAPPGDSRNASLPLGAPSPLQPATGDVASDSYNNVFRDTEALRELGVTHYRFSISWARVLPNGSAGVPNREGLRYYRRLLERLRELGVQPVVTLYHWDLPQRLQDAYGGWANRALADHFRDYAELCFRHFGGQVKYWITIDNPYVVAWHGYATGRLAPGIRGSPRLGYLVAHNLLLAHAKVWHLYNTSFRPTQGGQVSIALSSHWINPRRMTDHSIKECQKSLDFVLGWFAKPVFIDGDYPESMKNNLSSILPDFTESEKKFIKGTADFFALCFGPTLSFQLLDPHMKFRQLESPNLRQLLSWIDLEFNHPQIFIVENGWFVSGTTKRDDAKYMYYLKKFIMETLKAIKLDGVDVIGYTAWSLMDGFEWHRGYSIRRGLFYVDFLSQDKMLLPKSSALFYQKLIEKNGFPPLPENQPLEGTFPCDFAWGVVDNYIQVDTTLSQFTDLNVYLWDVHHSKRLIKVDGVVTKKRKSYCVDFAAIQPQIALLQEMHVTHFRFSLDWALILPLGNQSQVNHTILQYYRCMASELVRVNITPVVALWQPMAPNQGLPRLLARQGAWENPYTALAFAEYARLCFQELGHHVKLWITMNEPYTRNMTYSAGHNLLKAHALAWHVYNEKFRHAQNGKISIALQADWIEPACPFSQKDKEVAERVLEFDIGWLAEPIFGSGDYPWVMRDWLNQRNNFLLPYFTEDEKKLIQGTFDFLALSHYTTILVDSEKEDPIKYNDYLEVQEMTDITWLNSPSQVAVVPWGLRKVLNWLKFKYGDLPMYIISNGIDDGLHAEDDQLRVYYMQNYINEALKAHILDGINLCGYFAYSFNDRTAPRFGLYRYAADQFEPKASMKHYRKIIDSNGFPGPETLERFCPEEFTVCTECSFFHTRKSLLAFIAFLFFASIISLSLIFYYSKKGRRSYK
From the text: FIGS. 1A-1F Structure activity analysis among the two KL-interacting peptides C26 and C28. FIG. 1A provides a schematic representation of FGF23 showing the Amino terminal FGF23 core (amino acids 25-179) and the C-terminal portion that comprises two Klotho interaction sites “C26” (amino acids 180-205) and “C28” (amino acids 212-239); FIGS. 1B-1F are graphs presenting FGF23-antagonism measured by the relative p-Erk levels in 293/KL cells with increasing doses of the peptide antagonist. (FIG. 1B) compares C26 and C28; FIG. 1C is a graph showing the effect of the substitutions from C28 sequence into the C26 sequence on the peptide activity, comparing peptides C26(●), 1(▪), 2( ? ), 3(▴), and 4(○); FIG. 1D is a graph showing the effect of the substitutions from C28 sequence in the C26 sequence on the peptide activity, C28(●), 5(▪), 6( ? ), and 7(▴); FIGS. 1E & 1F are graphs showing the activity of shortened FGF23 C-terminal peptide antagonist in vitro. For FIG. 1E peptides C26(●), 8(▪), 9( ? ) are compared; For FIG. 1F peptides 6(●), 10(▪), 11( ? ), and 12(▴).
FIGS. 4A & 4B provide data relating to mutation of the C-terminal FGF23 peptides to assess their KL-interaction site by study of FGF23-activity antagonism in 293/KL cells. FGF23 C-terminal peptides tested for their ability to block FGF23-signaling measured by relative p-Erk levels are shown in FIG. 4A for peptides C26 (●), C28(▪), C26A1(T ? , FGF23^180-205, A^188), C28A2(▴, FGF23^212-239, A^222); and in FIG. 4B for peptides C72(●, FGF23^180-251), C72A1(▪, FGF23^180-251, A^188), C72 A2 ( ? , FGF23^180-251, A^222), C72A1A2(▴, FGF23^180-251, A^188,222). […]

[1] = tested on: FGFR/KL-downstream targets Cyp24a1, Cyp27b1 and Egr1; test: Mouse kidney gene expression after FGF23 protein analogs (quantitative real time PCR); format: in vivo; conditions: WT mice, 0.5 mg/kg, 3 hours
Procedure: (§1) FIGS. 5A-5D provide data relating to the activities of FGF23-analogs containing one or two active KL-interaction sites by in vitro and in vivo methods. […] FIGS. 5B-5D are scatter plots presenting an in vivo assessment of FGF23-activity in mice. WT mice were treated with 0.5 mg/kg body weight with either FGF23, FGF23 A^188, FGF23 A^222, FGF23 A^188,222, or vehicle, n=5 or 10/group, and post 3-hours the gene expression changes were studied by quantitative real time PCR for target genes, FIG. 5B represents measurement of Cyp24a1, FIG. 5C represents measurement of Cyp27b1, and FIG. 5D represents measurement of Egr1. The data is presented as a scatter plot where each dot represents one animal, mean ±SEM. One-way ANOVA with Tukey's comparison was employed for statistical analyses where***P<0.001 vs. vehicle; #P<0.05, ##P<0.01, ###P<0.001 vs FGF23; and $$$P<0.001 vs FGF23 A^188,222 was calculated.
To test whether C28 as the second KL-interaction site can promote FGF23 in vivo activity, the single site FGF23-analogs were assessed for their ability to alter kidney gene expression in normal mice. Four proteins (FGF23, FGF23 A188, FGF23 A222 or FGF23 A188, 222 analogs) were each dosed to mice 0.5 mg/kg and 3 hours later quantitative real time PCR was employed to assess kidney mRNA expression of the FGFR/KL-downstream targets Cyp24a1, Cyp27b1 and early growth response protein 1 (Egr1). […] This is not surprising since the optimal treatment time for Egrl modulation is as early as 1 hour for FGF-signaling measurements. The magnitude in upregulation of gene expression for Cyp24a1 was the highest, with twenty-fold induction by native FGF23 treatment (FIG. 5B). […] Similarly, the Egrl induction is reduced for FGF23 A188 and FGF23 A222 analogs as compared to native FGF23 (P<0.05, FIG. 5D), but no difference is observed among the analogs and FGF23 for Cyp27b1 (FIG. 5C).

FGFR/KL complex = test: FGF23-signaling activity (stimulation of Erk-phosphorylation) in 293/KL cells; format: cell-based, human
Procedure: as §1
Whether FGF23-based agonism can employ each of the two KL-interaction sites as witnessed in the C72 peptide antagonist was studied. To do so, a selective mutation at position Asp188 or Asp222 was made in the native FGF23. […] This is consistent with prior reports where C-terminal sequence deletion after residue 205 position had no apparent effect on cellular signaling (FIG. 5A, Table 3). […] Asp188 residue is purported to be singularly essential for KL-binding and FGF23 activity, and its importance was substantiated by the lack of antagonism when the C26 peptide was similarly mutated from Asp to Ala (FIG. 4A). […] To confirm that these observations were not resulting from unexpected changes in higher order structure that was not apparent in biosynthesis, purification, or formulation of the mutant proteins their biophysical integrity were directly assessed by thermal denaturation.
The N-terminal domain of the endocrine FGFs primarily determines the FGFR-activation while the C-terminal sequence guides the co-receptor specificity with a Klotho co-receptor, KL or KLB. The receptor complex specificity among the endocrine FGF-proteins can be modulated by altering their C-terminal domains. Consequently, two FGF21-23 chimeric protein analogs were prepared containing the FGF21 N-terminal core with its C-terminal KLB-binding peptide replaced with an FGF23 C-terminal peptide sequence constituted by C72 (FGF21-23 C72) or C26 (FGF21-23 C26) (Table 3).

[2] = Table 1, block of FGF23-signaling
[3] = Table 2, block of FGF23-signaling

IC50 (FGFR/KL-complex; [2]): 24.5 ± 11.5 nM
reduction in inhibitory potency relative to C72 (FGFR/KL-complex; fold): more than twenty-fold
Molecule: SAEDDSERAPLNVLKPRARMTPAPASCSQELPSAEDNSPMASDPLGVVRGGRVNTHAGGTGPEGCRPFAKFI [C72 A1, FGF23^180-251, A^188]

Molecule: I: SAEDNSPMASDPLGVVRPRARMTHAGGTGPEGC / II: SAEDNSPMASDPLGVVRPRARMTHAGGTGPEGC (disulfide I:33-II:33) [Peptide 20]
FGF23-antagonist activity (in words) (FGFR/KL-complex): equal to that of C72; also recorded: no greater potency than C72

IC50 (FGFR/KL-complex; [2]): 33.1 ± 15.8 nM
reduction in inhibitory potency relative to C72 (FGFR/KL-complex; fold): more than twenty-fold
Molecule: SAEDDSERDPLNVLKPRARMTPAPASCSQELPSAEDNSPMASAPLGVVRGGRVNTHAGGTGPEGCRPFAKFI [C72 A2, FGF23^180-251, A^222]

enhancement of FGF23-antagonistic potency of dimer compared to corresponding monomers (FGFR/KL-complex; fold): approximately twenty to fifty-fold
Molecule: I: SAEDNSPMASDPLGVVRGGRVNTHAGGTGPEGC / II: SAEDDSERDPLNVLKPRARMTPAPASGPEGC (disulfide I:33-II:31) [Peptide 19]
FGF23-antagonist activity (in words) (FGFR/KL-complex): indistinguishable from the activity of the two homodimers

Molecule: I: SAEDNSPMASAPLGVVRPRARMTHAGGTGPEGC / II: SAEDNSPMASDPLGVVRPRARMTHAGGTGPEGC (disulfide I:33-II:33) [Peptide 22]
FGF23-antagonist activity (in words) (FGFR/KL-complex): reduced in potency relative to C72 and peptide 20

enhancement of FGF23-antagonistic potency of dimer compared to corresponding monomers (FGFR/KL-complex; fold): approximately twenty to fifty-fold
Molecule: I: SAEDDSERDPLNVLKPRARMTPAPASGPEGC / II: SAEDDSERDPLNVLKPRARMTPAPASGPEGC (disulfide I:31-II:31) [Peptide 17]

enhancement of antagonistic potency relative to C28 (FGFR/KL-complex; fold): two to three-fold
Molecule: SAEDNSPMASDPLGVVRGGRVNTHAGGTGPEGCRPFAKFI [C40]

IC50 (FGFR/KL-complex; [3]): 542 ± 282 nM
Molecule: DPLNVLKPRARM [Peptide 9]

IC50 (FGFR/KL-complex; [3]): 17.1 ± 0.6 nM
Molecule: ASDPLGVVRPRARM [Peptide 11]

IC50 (FGFR/KL-complex; [3]): 70.9 ± 29.5 nM
Molecule: DPLGVVRPRARM [Peptide 12]

IC50 (FGFR/KL-complex; [3]): 97 ± 30.3 nM
Molecule: ERDPLNVLKPRARM [Peptide 8]

enhancement of FGF23-antagonistic potency of dimer compared to corresponding monomers (FGFR/KL-complex; fold): approximately twenty to fifty-fold
Molecule: I: SAEDNSPMASDPLGVVRGGRVNTHAGGTGPEGC / II: SAEDNSPMASDPLGVVRGGRVNTHAGGTGPEGC (disulfide I:33-II:33) [Peptide 18]

IC50 (FGFR/KL-complex; [3]): 3.8 ± 0.9 nM
Molecule: PMASDPLGVVRPRARM [Peptide 10]

FGF23-antagonist activity (in words) (FGFR/KL-complex): complete loss of activity
Molecule: SAEDDSERAPLNVLKPRARMTPAPASCSQELPSAEDNSPMASAPLGVVRGGRVNTHAGGTGPEGCRPFAKFI [C72 A1A2, FGF23^180-251, A^188,222]

EC50 (FGFR/KL complex; Table 3, p-Erk): 0.29 ± 0.12 nM
B1: FGF23 A^222: FGF23^25-240, A^222 (protein)
chain: YPNASPLLGSSWGGLIHLYTATARNSYHLQIHKNGHVDGAPHQTIYSALMIRSEDAGFVVITGVMSRRYLCMDFRGNIFGSHYFDPENCRFQHQTLENGYDVYHSPQYHFLVSLGRAKRAFLPGMNPPPYSQFLSRRNEIPLIHFNTPIPRRHTRSAEDDSERDPLNVLKPRARMTPAPASCSQELPSAEDNSPMASAPLGVVRGGRVNTHAGGTG
kidney Cyp24a1 mRNA expression vs vehicle [1]: significant elevation
kidney Cyp27b1 mRNA expression vs vehicle [1]: coordinate suppression
Egr1 induction as compared to native FGF23 ([1]; kidney): reduced
magnitude of Cyp24a1 effect as compared to native FGF23 ([1]; kidney): fractionally reduced
FGF23-type agonism / FGFR/KL activation (in words) (FGFR/KL complex): comparable potency to native protein

B2: FGF21: FGF21^29-209 (protein)
chain: HPIPDSSPLLQFGGQVRQRYLYTDDAQQTEAHLEIREDGTVGGAADQSPESLLQLKALKPGVIQILGVKTSRFLCQRPDGALYGSLHFDPEACSFRELLLEDGYNVYQSEAHGLPLHLPGNKSPHRDPAPRGPARFLPLPGLPPALPEPPGILAPQPPDVGSSDPLSMVGPSQGRSPSYAS
FGF23-type agonism / FGFR/KL activation (in words) (FGFR/KL complex): unable to activate

IC50 (FGFR/KL-complex; [2]): 1.2 nM
enhancement of antagonistic potency relative to C26 (FGFR/KL-complex; fold): seventy
enhancement of antagonistic potency relative to C28 (FGFR/KL-complex; fold): thirty-fold
B3: FGF23^180-251: SAEDD SER-- DPLNV LKPRA RMTPA PAS CSQELP SAEDNSPMASDPLGVVRGGRVNTHAGGT GPEGC RPFAKFI (peptide)
chain: SAEDDSERDPLNVLKPRARMTPAPASCSQELPSAEDNSPMASDPLGVVRGGRVNTHAGGTGPEGCRPFAKFI
